The first data set is described as follows: in vitro. As to conditions: human, hela cells, % viability.
The term viability denotes a read-out of living cells in per cent, often relative to untreated cells. Take `O=C1CC(c2ccccc2)CC(NCc2ccc3c(c2)OCO3)=C1C(=S)Nc1ccccc1` (stereo not shown) [CBK264890]: the viability at 28.5 h, 10 µM amounted to 94.4%.

`COc1ccc(-n2c(SC(CN3CCCCC3)CN3CCCC3=O)nc3ccccc3c2=O)cc1` (stereo not shown) [CBK264891C]: the viability at 28.5 h, 10 µM came to 87.8%.

With `COCCCN1C(=O)C(O)=C(C(=O)c2ccc(Cl)cc2)C1c1cccc(O)c1` (stereo not shown) [CBK264892], the viability at 28.5 h, 10 µM amounted to 105%.

As to `CCN(CC)CCCNc1c([N+](=O)[O-])c(=O)n(C)c2ccccc12` [CBK264893], the viability at 28.5 h, 10 µM amounted to 112%.

Turning to `CC(=O)Nc1sc(/C(C#N)=C/c2cccc(Oc3ccccc3)c2)nc1-c1ccc(C)cc1` [CBK264895], the viability at 28.5 h, 10 µM is 98.4%.

As for `COc1cccc(C2C(C(=O)c3ccc(C)o3)=C(O)C(=O)N2CCN2CCOCC2)c1` (stereo not shown) [CBK264899], the viability at 28.5 h, 10 µM was determined as 92.8%.

In the case of `COc1cccc(C2C(C(=O)c3ccc(Cl)cc3)=C(O)C(=O)N2CCN2CCOCC2)c1` (stereo not shown) [CBK264901], the viability at 28.5 h, 10 µM was 90%.

In the case of `CC(C)CNC(=O)C(=O)NCCc1ccc(F)cc1` [CBK264903], the viability at 28.5 h, 10 µM was determined as 105%.

`O=C(COc1ccc(Cl)cc1Cl)OCCNC1=NS(=O)(=O)c2ccccc21` [CBK264905]: the viability at 28.5 h, 10 µM amounted to 110%.

On to `CC(C)Oc1ccc(C(=O)C2=C(O)C(=O)N(CCN(C)C)C2c2ccncc2)cc1` (stereo not shown) [CBK264907], for which the viability at 28.5 h, 10 µM is 90.3%.

Regarding `COc1cc(C(=O)Oc2cccc(Nc3ncnc4ccccc34)c2)cc(OC)c1OC` [CBK264908], the viability at 28.5 h, 10 µM was found to be 109%.

`O=C(NCN1CCN(c2ccc([N+](=O)[O-])cc2)CC1)c1cccnc1` [CBK264909]: the viability at 28.5 h, 10 µM was determined as 106%.

As for `Cc1cccc(CN(CC(=O)Nc2ccc3c(c2)OCCO3)S(=O)(=O)c2ccc(Cl)cc2)c1` [CBK264910], the viability at 28.5 h, 10 µM amounted to 91.9%.

For `O=C(O)c1ccc(N2CCN(CCO)CC2)c([N+](=O)[O-])c1` [CBK264911C], the viability at 28.5 h, 10 µM is 100%.

For the compound `COc1cccc(-c2nc(SCC(=O)Nc3ccc([N+](=O)[O-])cc3)[nH]c(=O)c2C#N)c1` [CBK264912], the viability at 28.5 h, 10 µM came to 105%.

Take `O=[N+]([O-])c1ccc(NC(=S)NCCCn2ccnc2)cc1` [CBK264915]: the viability at 28.5 h, 10 µM is 93.3%.

With `O=C(CSCc1ccccc1)Nc1ccc2c3c(cccc13)CC2` [CBK264916], the viability at 28.5 h, 10 µM came to 107%.

Turning to `O=C1c2ccccc2CN1CCNS(=O)(=O)c1ccc2oc3ccccc3c2c1` [CBK264918], the viability at 28.5 h, 10 µM was determined as 98.9%.

On to `Cc1cccc(NC(=S)N2CCN(Cc3ccc4c(c3)OCO4)CC2)c1C` [CBK264919], for which the viability at 28.5 h, 10 µM was found to be 82.7%.

Take `COc1cccc(C2C(C(=O)c3ccc(Br)cc3)=C(O)C(=O)N2CCCN(C)C)c1` (stereo not shown) [CBK264921]: the viability at 28.5 h, 10 µM stood at 84.5%.

Take `O=C(Oc1ccc(F)cc1C(=O)/C=C/c1cccs1)c1ccc([N+](=O)[O-])cc1` [CBK264925]: the viability at 28.5 h, 10 µM is 91.2%.

Take `S=C(NCCc1ccccc1)NCCN1CCOCC1` [CBK264929]: the viability at 28.5 h, 10 µM came out at 87.4%.

`O=C(NC(=S)Nc1ccc(-c2nc3ccccc3o2)c(O)c1)c1cncc(Br)c1` [CBK264931]: the viability at 28.5 h, 10 µM stood at 97%.

Regarding `O=C(C1=C(O)C(=O)N(c2ncccn2)C1c1cccc([N+](=O)[O-])c1)c1ccc(F)cc1` (stereo not shown) [CBK264932], the viability at 28.5 h, 10 µM worked out at 85.2%.

As for `CCc1cccc2c(/C=C3/SC(=S)N(CC(=O)O)C3=O)c[nH]c12` [CBK264937], the viability at 28.5 h, 10 µM stood at 94%.

With `Cc1[nH]nc(-c2ccc(OCc3cnn(-c4ccccc4)c3)cc2O)c1Oc1ccc(Cl)cc1` [CBK264939], the viability at 28.5 h, 10 µM was found to be 86.8%.

As to `CCOC(=O)CC(=O)CSc1nc(N)c2c3c(sc2n1)CCCC3` [CBK264942], the viability at 28.5 h, 10 µM is 120%.

Turning to `O=C(NCCCNc1c(Cl)cccc1[N+](=O)[O-])c1ccc(F)cc1` [CBK264943], the viability at 28.5 h, 10 µM stood at 99.4%.

On to `CC(=O)Nc1ccc(S(=O)(=O)N2CCN(c3ccc([N+](=O)[O-])cc3C(F)(F)F)CC2)cc1` [CBK264944], for which the viability at 28.5 h, 10 µM amounted to 112%.

Turning to `Cc1ccc(S(=O)(=O)NCCNc2ccc(C(F)(F)F)cc2[N+](=O)[O-])cc1` [CBK264945], the viability at 28.5 h, 10 µM was 90.4%.

As to `O=c1oc2c(CN3CCN(CCO)CC3)c(O)ccc2cc1-c1nc(-c2ccc(Br)cc2)cs1` [CBK264949], the viability at 28.5 h, 10 µM came out at 103%.

As to `COc1ccc(-c2nc3cc(NC(=O)c4ccccc4Br)ccc3o2)cc1` [CBK264953], the viability at 28.5 h, 10 µM came to 95.5%.

On to `Cc1ccc(OCC(=O)NC(=S)Nc2cc(C(=O)O)ccc2C)cc1C` [CBK264955], for which the viability at 28.5 h, 10 µM was 92.8%.

Regarding `COc1cc(C2NC(=O)NC(O)(C(F)(F)F)C2C(=O)c2ccccc2)ccc1OCc1ccccc1` (stereo not shown) [CBK264957], the viability at 28.5 h, 10 µM was determined as 114%.

In the case of `NS(=O)(=O)c1ccc(NS(=O)(=O)c2ccc(NC(=O)C3CC3)cc2)cc1` [CBK264958], the viability at 28.5 h, 10 µM came out at 103%.

For `O=C(O)c1ccccc1NC(=S)NC(=O)c1ccccc1[N+](=O)[O-]` [CBK264963], the viability at 28.5 h, 10 µM amounted to 96.2%.

For the compound `Sc1nnc(COc2ccc(-c3ccccc3)cc2)n1-c1ccccc1` [CBK264964], the viability at 28.5 h, 10 µM was determined as 105%.

For `CC1CCN(S(=O)(=O)c2ccc(NC(=O)COc3ccc4ccccc4c3)cc2)CC1` [CBK264969], the viability at 28.5 h, 10 µM came out at 96.7%.

With `O=C(CC(C(=O)O)P(=O)(c1ccccc1)c1ccccc1)c1ccccc1` (stereo not shown) [CBK264971], the viability at 28.5 h, 10 µM is 114%.

On to `CN(C)c1nc(Oc2ccc(OCCOc3ccccc3)nn2)nc(N(C)C)n1` [CBK264976], for which the viability at 28.5 h, 10 µM turned out to be 104%.

Regarding `CN(C)S(=O)(=O)c1ccc(C(=O)Nc2ccc(-c3ccccc3)cc2)cc1` [CBK264978], the viability at 28.5 h, 10 µM came out at 96.2%.

For `CC1(C(=O)O)NC(c2ccccc2O)C2C(=O)N(c3ccccc3[N+](=O)[O-])C(=O)C21` (stereo not shown) [CBK264979], the viability at 28.5 h, 10 µM worked out at 107%.

As to `Cc1ccc(S(=O)(=O)Nc2nc(C)c(NC(=O)Nc3ccc(Cl)cc3Cl)s2)cc1` [CBK264982], the viability at 28.5 h, 10 µM stood at 85.8%.

On to `Cn1c(SCc2c(Cl)cccc2[N+](=O)[O-])nnc1-c1ccc(NC(=O)c2ccccc2Cl)cc1` [CBK264983], for which the viability at 28.5 h, 10 µM is 81.1%.

Turning to `COc1ccc(CCNC(=O)C2CCN(S(=O)(=O)c3ccccc3)CC2)cc1` [CBK264985], the viability at 28.5 h, 10 µM was 95%.

As to `CCOC(=O)Cc1cc(O)nc(NC(=N)Nc2ccc(C)cc2C)n1` [CBK264986], the viability at 28.5 h, 10 µM came out at 104%.

For the compound `O=c1c2ccccc2nc(CSc2[nH]cnc3ncnc2-3)n1-c1cccc(C(F)(F)F)c1` [CBK264991], the viability at 28.5 h, 10 µM came to 105%.

`CC1CCN(S(=O)(=O)c2ccc(NC(=O)COc3ccc([N+](=O)[O-])cc3)cc2)CC1` [CBK264994]: the viability at 28.5 h, 10 µM was determined as 95.4%.

As to `Cc1ccc(S(=O)(=O)Nc2ccccn2)c(C)c1C` [CBK264995], the viability at 28.5 h, 10 µM stood at 90%.

On to `Cc1ccc(C(=O)O)cc1NC(=S)NC(=O)c1ccc(-c2ccccc2)cc1` [CBK264997], for which the viability at 28.5 h, 10 µM worked out at 92.7%.

`CCN(Cc1ccccc1)c1ccc(C2NC(=O)NC(O)(C(F)(F)F)C2C(=O)c2cccnc2)cc1` (stereo not shown) [CBK264999]: the viability at 28.5 h, 10 µM was found to be 91.7%.

As for `Cc1ccc(OCC(=O)NC(=S)Nc2cc(C(=O)O)ccc2C)cc1` [CBK265000], the viability at 28.5 h, 10 µM was found to be 96.8%.

For `Cn1c(SCc2ccc([N+](=O)[O-])cc2)nnc1-c1ccc(NC(=O)c2ccccc2Cl)cc1` [CBK265001], the viability at 28.5 h, 10 µM was 111%.

As for `COc1ccc(-c2c(-c3ccc(OCc4cnn(-c5ccccc5)c4)c(C)c3O)n[nH]c2C)cc1` [CBK265006], the viability at 28.5 h, 10 µM came to 92.5%.

Turning to `COC(=O)c1sc(NC(=O)c2cccnc2)c(C#N)c1C` [CBK265007], the viability at 28.5 h, 10 µM came out at 89.4%.

`CC(C)(C)OC(=O)NCCC(=O)Oc1ccc2c3c(c(=O)oc2c1)CCCC3` [CBK265008]: the viability at 28.5 h, 10 µM amounted to 89.3%.

Turning to `O=[N+]([O-])c1cc(-c2nc(-c3cccs3)c(-c3cccs3)[nH]2)ccc1Br` [CBK265009], the viability at 28.5 h, 10 µM was found to be 102%.

For `CN(C)S(=O)(=O)Nc1ccc(Cc2ccncc2)cc1` [CBK265011], the viability at 28.5 h, 10 µM worked out at 115%.

Regarding `CCOC(=O)c1c(NC(=O)C2CCCN2S(=O)(=O)c2ccccc2)sc2c1CCCC2` (stereo not shown) [CBK265012], the viability at 28.5 h, 10 µM worked out at 92%.

For `O=C(O)c1cccc(NC(=S)NC(=O)c2ccc(-c3ccc(Br)cc3)o2)c1` [CBK265014], the viability at 28.5 h, 10 µM is 95.6%.

On to `Nc1nc(-n2cnnc2)nn1-c1ccccc1` [CBK265015], for which the viability at 28.5 h, 10 µM turned out to be 97.2%.

Take `Cc1ccc(NC(=O)CN2C(=O)N/C(=C\c3cc(Br)cc(Cl)c3O)C2=O)cc1` [CBK265018]: the viability at 28.5 h, 10 µM was determined as 98.7%.

In the case of `Cc1n[nH]c(O)c1C(c1ccc(OC(=O)c2ccccc2)cc1)c1c(C)n[nH]c1O` [CBK265019], the viability at 28.5 h, 10 µM is 109%.

Consider `Nc1cc(=O)[nH]c(SCC(=O)Nc2ccc(S(N)(=O)=O)cc2)n1` [CBK265021], for which the viability at 28.5 h, 10 µM came to 91.2%.

Regarding `Cc1ccc(C(=O)CC(C(=O)O)P(=O)(c2ccccc2)c2ccccc2)cc1` (stereo not shown) [CBK265022], the viability at 28.5 h, 10 µM was 90.1%.

As for `O=C(/C=C/c1ccccc1)N/C(=C/c1ccccc1)C(=O)Nc1ccc2ccccc2c1` [CBK265023], the viability at 28.5 h, 10 µM amounted to 89.6%.

With `CC(C)c1ccc(/C=C/C(=O)NC(=S)Nc2cccc(C(=O)O)c2)cc1` [CBK265024], the viability at 28.5 h, 10 µM was found to be 94.3%.

Take `CC(=O)CSc1nnc(COc2ccc(C3CCCCC3)cc2)n1-c1ccccc1` [CBK265026]: the viability at 28.5 h, 10 µM is 116%.

Turning to `O=C(/C=C/c1ccc([N+](=O)[O-])cc1)c1ccc(O)c(O)c1` [CBK265028], the viability at 28.5 h, 10 µM came to 105%.

Take `COCCN(CCOC)Cc1c(C)nc2c(C)c(C)ccc2c1O` [CBK265031]: the viability at 28.5 h, 10 µM was determined as 102%.

`Cc1oc(C(C)(C)C)cc1C(=O)NCCNc1c(Cl)cccc1[N+](=O)[O-]` [CBK265032]: the viability at 28.5 h, 10 µM came out at 119%.

With `Cn1c(SCc2cccc3ccccc23)nnc1-c1ccc(NC(=O)/C=C/c2ccccc2)cc1` [CBK265034], the viability at 28.5 h, 10 µM was found to be 114%.

Staying with this data set, now noted: human, hela cells, % viability, bulk resorufin, single well.
Regarding `Cc1cccc(N2C(=O)NC(=O)C(CCc3ccncc3)(CCc3ccncc3)C2=O)c1` [CBK264898], the viability at 28.5 h, 10 µM was 96.3%.

(Values after PMC12040169 (PLOS Biology, 2025).)
